{"source": "patent US8101352B2", "about": "“Detection of ESR1 amplification in breast cancer” (Universitatsklinikum Hamburg-Eppendorf, priority 2006, dated 2012)", "test_system": "breast cancer patients", "assay": "Prognostic relevance of ESR1 alterations in breast cancer treated with Tamoxifen (tissue microarray FISH/IHC with survival analysis)", "assay_type": "in vivo, human", "excerpt": "Contingency table analysis and Chi-square tests were used to study the relationship between histologic tumor type, grade, stage and gene amplification. Survival curves were plotted according to Kaplan-Meier. A log rank test was applied to examine the relationship between gene amplifications and patient survival.\n2.1 The general results obtained by CGH were verified by fluorescence in situ hybridization (FISH) using existing tissue microarrays. A breast cancer Prognosis Tissue Microarray containing more than 2517 breast tissues was analyzed. […]\n2.3 The TMA sections were treated according to the Paraffin Pretreatment Reagent Kit protocol (Vysis, Downers Grove, Ill.) before hybridization. […] In a second more refined analysis FISH signal numbers of the ESR1 gene and centromere 6 were counted in each tissue spot. […]\n3.1 Immunohistochemical detection of the estrogen receptor alpha protein was performed using the above described TMAs and antibody NCL-L-ER-6F11 as a primary antibody (Novocastra, Newcastle, UK). […] In brief, intensity of the estrogen receptor staining was recorded in a 4-step scale (0-3) and the fraction of ER positive tumor cells in a 5-step (1-5) scale. […]", "data": [{"smiles": "CC/C(=C(\\c1ccccc1)c1ccc(OCCN(C)C)cc1)c1ccccc1", "note": "[Tamoxifen]", "values": [{"measurement": "prognosis of Tamoxifen treated patients with ESR1 amplification", "setting": "Tamoxifen monotherapy after surgery, ESR1 amplified versus ER positive by IHC without ESR1 amplification, p<0.0001 (FIG. 4)", "value": "significantly better"}, {"measurement": "overall survival of patients with ESR1-amplified tumors under anti-estrogen therapy with Tamoxifen", "setting": "compared to patients with tumors not exhibiting ESR1 amplification (FIG. 4)", "value": "significantly increased"}]}]}
